Patent US4426524A, “Heterocyclic substituted benzyl alcohol, insecticidal ester derivatives, and intermediates” (priority 1982, dated 1984)
Read-outs that look alike come from different tables or passages of the source.

How the values were obtained:
Mexican bean beetle [1] = assay: Foliar application, Mexican bean beetle; format: in vivo; details: Epilachna varivestis, read-out: Foliar % Kill (ppm)
Description: (§1) Foliar Application: The activity of some of the compounds of the invention against various test species selected from pea aphid (Acyrthosiphon pisum), twospotted spider mite (Tetranychus urticae), southern armyworm (Spodoptera eridania), Mexican bean beetle (Epilachna varivestis), and cabbage looper (Tricoplusia ni) was determined by foliar application of the test compound. The test materials were formulated as aqueous solutions containing 10% acetone and 0.25% acetylphenoxypolyethoxyethanol. Activity against pea aphid was determined on English fava bean plants the leaves of which were sprayed to runoff with various concentrations of test solution prior to infestation with adult aphids. Activity against twospotted spider mite was evaluated on pinto bean plants whose leaves were sprayed to runoff with various concentrations of test solution after infestation with adult mites. Activity against the remaining species was evaluated on pinto bean plants whose leaves were sprayed to runoff with various concentrations of test solution before infestation with the appropriate immature insects. Mortality was read approximately 48 hours after treatment.

Mexican bean beetle [2] = assay: Topical application, Mexican bean beetle; format: in vivo, Epilachna varivestis; details: MBB; for Topical % Kill @ 5000 ng/insect: 24 hours
Description: (§2) Topical Application: The compounds of this invention were tested for insecticidal activity against various insect species selected from southern armyworm (Spodoptera eridania), Mexican bean beetle, (Epilachna varivestis), milkweed bug (Oncopeltus fasciatus), and cabbage looper (Tricoplusia ni) by applying to the second or third dorsal thoracic segment of each larvae a one microliter droplet containing 5 mg/mL of test compound in acetone (5000 ng/insect). The test was allowed to stand 24 hours after application and was then read to determine the percent kill.
(§3) To determine the LD50 of the compounds, the topical application test was repeated by applying various amounts of toxicant. Also included among the species tested against for this determination were tobacco budworm (Heliothis virescens), beet armyworm (Spodoptera exigua), and boll weevil (Anthonomus grandis).

pea aphid = assay: Foliar application, pea aphid; format: in vivo; details: Acyrthosiphon pisum, read-out: Foliar % Kill (ppm)
Description: as §1

twospotted spider mite = assay: Foliar application, twospotted spider mite; format: in vivo; details: Tetranychus urticae, read-out: Foliar % Kill (ppm)
Description: as §1

southern armyworm [3] = assay: Topical application, southern armyworm; format: in vivo, Spodoptera eridania; details: SAW; for Topical % Kill @ 5000 ng/insect: 24 hours
Description: as §2, §3

southern armyworm [4] = assay: Foliar application, southern armyworm; format: in vivo; details: Spodoptera eridania, read-out: Foliar % Kill (ppm)
Description: as §1

milkweed bug = assay: Topical application, milkweed bug; format: in vivo, Oncopeltus fasciatus; details: MWB; for Topical % Kill @ 5000 ng/insect: 24 hours
Description: as §2, §3

cabbage looper = assay: Topical application, cabbage looper; format: in vivo, Tricoplusia ni; details: CL; for Topical % Kill @ 5000 ng/insect: 24 hours
Description: as §2, §3

tobacco budworm = assay: Topical application, tobacco budworm; format: in vivo, Heliothis virescens; details: TBW
Description: as §2, §3

Compound	mortality at 64 ppm (Mexican bean beetle [1]; MBB, foliar, 48 hours)	Topical LD50 (Mexican bean beetle [2])	Topical % Kill @ 5000 ng/insect (Mexican bean beetle [2])	mortality at 500 ppm (pea aphid; PA, foliar, 48 hours)	mortality at 16 ppm (twospotted spider mite; TSM, foliar, 48 hours)	Topical LD50 (southern armyworm [3])	Topical % Kill @ 5000 ng/insect (southern armyworm [3])	mortality at 500 ppm (southern armyworm [4]; SAW, foliar, 48 hours)	Topical LD50 (milkweed bug)	Topical % Kill @ 5000 ng/insect (milkweed bug)	Topical LD50 (cabbage looper)	mortality at 500 ppm (twospotted spider mite; TSM, foliar, 48 hours)	further results
Cc1c(COC(=O)[C@@H]2[C@H](C=C(Cl)Cl)C2(C)C)cccc1-c1cnccn1 (relative stereo) [q, [2-methyl-3-(pyrazinyl)phenyl]methyl cis-(2,2-dichloroethenyl)-2,2-dimethylcyclopropanecarboxylate]	55%	269 ng/insect	90%	100%	0%	2387 ng/insect	90%	85%	4915 ng/insect	90%			
CC1(C)C(C=C(Cl)Cl)C1C(=O)OCc1cccc(-c2cccs2)c1 (mixture of isomers) [a, 3-(2-thienyl)phenylmethyl cis,trans-3-(2,2-dichloroethenyl)-2,2-dimethylcyclopropanecarboxylate]						148 ng/insect	100%				3649 ng/insect		Topical % Kill @ 5000 ng/insect (cabbage looper): 100%
Cc1c(COC(=O)[C@H]2[C@@H](C=C(Cl)C(F)(F)F)C2(C)C)cccc1-c1cnccn1 (relative stereo) [p, [2-methyl-3-(pyrazinyl)phenyl]methyl cis-3-(2-chloro-3,3,3-trifluoro-1-propenyl)-2,2-dimethylcyclopropanecarboxylate]	80%	93 ng/insect	100%	100%		1948 ng/insect	90%	100%	1050 ng/insect	100%		100%	
Cc1c(COC(=O)[C@H]2[C@@H](C=C(Cl)Cl)C2(C)C)cccc1-c1ccco1 (relative stereo) [n, [3-(2-furanyl)-2-methylphenyl]methyl cis-3-(2,2-dichloroethenyl)-2,2-dimethylcyclopropanecarboxylate]	40%	72 ng/insect	100%		0%	73 ng/insect		100%	1140 ng/insect	100%	341 ng/insect		mortality at 64 ppm (pea aphid; PA, foliar, 64 ppm, 48 hours): 100%; Topical LD50 (tobacco budworm): 92 ng/insect
CC1(C)[C@H](C=C(Cl)Cl)[C@@H]1C(=O)OCc1cccc(-c2cccs2)c1 (relative stereo) [b, 3-(2-thienyl)phenylmethyl cis-3-(2,2-dichloroethenyl)-2,2-dimethylcyclopropanecarboxylate]		471 ng/insect				54 ng/insect			1715 ng/insect		1275 ng/insect	0%	mortality at 512 ppm (Mexican bean beetle [1]; MBB, foliar, 512 ppm, 48 hours): 80%; mortality at 512 ppm (pea aphid; PA, foliar, 512 ppm, 48 hours): 80%; mortality at 512 ppm (southern armyworm [4]; SAW, foliar, 512 ppm, 48 hours): 95%
CC1(C)[C@H](C=C(Cl)C(F)(F)F)[C@@H]1C(=O)OCc1cccc(-c2ccco2)c1 (relative stereo) [k, [3-(2-furanyl)phenyl]methyl cis-3-(2-chloro-3,3,3-trifluoro-1-propenyl)-2,2-dimethylcyclopropanecarboxylate]		510 ng/insect	90%			366 ng/insect	100%			40%			mortality at 512 ppm (Mexican bean beetle [1]; MBB, foliar, 512 ppm, 48 hours): 100%; mortality at 512 ppm (pea aphid; PA, foliar, 512 ppm, 48 hours): 100%; mortality at 64 ppm (twospotted spider mite; TSM, foliar, 64 ppm, 48 hours): 0%; mortality at 512 ppm (southern armyworm [4]; SAW, foliar, 512 ppm, 48 hours): 100%
CC1(C)[C@H](C(=O)OCc2cccc(-c3ccc(Br)o3)c2)[C@@H]1C=C(Cl)Cl (relative stereo) [l, [3-(5-bromofuranyl)phenyl]methyl cis-3-(2,2-dichloroethenyl)-2,2-dimethylcyclopropanecarboxylate]			35%			1819 ng/insect	100%			0%			mortality at 512 ppm (Mexican bean beetle [1]; 48 h): 80%; mortality at 512 ppm (pea aphid; 48 h): 75%; mortality at 64 ppm (twospotted spider mite; 48 h): 0%; mortality at 512 ppm (southern armyworm [4]; 48 h): 100%
Cc1c(COC(=O)[C@H]2[C@@H](C=C(Cl)C(F)(F)F)C2(C)C)cccc1-c1ccccn1 (relative stereo) [s, [2-methyl-3-(pyridin-2-yl)phenyl]methyl cis-3-(2-chloro-3,3,3-trifluoro-1-propenyl)-2,2-dimethylcyclopropanecarboxylate]	60%	38 ng/insect	100%	100%		60 ng/insect	100%	100%	607 ng/insect	100%		80%	
CC1(C)[C@H](C=C(Cl)Cl)[C@@H]1C(=O)OCc1cccc(-c2ccco2)c1 (relative stereo) [j, [3-(2-furanyl)phenyl]methyl cis-3-(2,2-dichloroethenyl)-2,2-dimethylcyclopropanecarboxylate]			30%	40%		377 ng/insect	100%			0%		0%	mortality at 512 ppm (Mexican bean beetle [1]; MBB, foliar, 512 ppm, 48 hours): 50%; mortality at 512 ppm (southern armyworm [4]; SAW, foliar, 512 ppm, 48 hours): 100%
Cc1c(COC(=O)C2C(C=C(Cl)Cl)C2(C)C)cccc1-c1ccco1 (mixture of isomers) [o, [3-(2-furanyl)-2-methylphenyl]methyl cis,trans-3-(2,2-dichloroethenyl)-2,2-dimethylcyclopropanecarboxylate]	45%	86 ng/insect	100%	100%	0%	146 ng/insect	100%	100%	450 ng/insect	100%	536 ng/insect		Topical LD50 (tobacco budworm): 45 ng/insect
CC1(C)[C@@H](C=C(Cl)Cl)[C@@H]1C(=O)OCc1cccc(-c2cccs2)c1 (relative stereo) [c, 3-(2-thienyl)phenylmethyl trans-3-(2,2-dichloroethenyl)-2,2-dimethylcyclopropanecarboxylate]						421 ng/insect	100%						Topical % Kill @ 5000 ng/insect (cabbage looper): 0%
Cc1c(COC(=O)[C@H]2[C@@H](C=C(Cl)C(F)(F)F)C2(C)C)cccc1-c1cccnc1 (relative stereo) [r, [2-methyl-3-(pyridin-3-yl)phenyl]methyl cis-3-(2-chloro-3,3,3-trifluoro-1-propenyl)-2,2-dimethylcyclopropanecarboxylate]	25%	863 ng/insect		95%	0%	2626 ng/insect	100%	100%	1047 ng/insect	100%			
